Here are results for 20 compounds from patent US9481676B2, “Azepino[4,5-B]indoles and methods of use” (Medivation Technologies, Inc., priority 2008, dated 2016).

In general, inhibition refers to the drop in the measured response relative to a control, in per cent.

For assay [1], the target named is T1, human recombinant adrenergic α2A receptor (Homo sapiens, UniProt P08913).
T1 construct: expressed in transfected cells; host or cells: insect Sf9 cells
T1 sequence (P08913 1-465): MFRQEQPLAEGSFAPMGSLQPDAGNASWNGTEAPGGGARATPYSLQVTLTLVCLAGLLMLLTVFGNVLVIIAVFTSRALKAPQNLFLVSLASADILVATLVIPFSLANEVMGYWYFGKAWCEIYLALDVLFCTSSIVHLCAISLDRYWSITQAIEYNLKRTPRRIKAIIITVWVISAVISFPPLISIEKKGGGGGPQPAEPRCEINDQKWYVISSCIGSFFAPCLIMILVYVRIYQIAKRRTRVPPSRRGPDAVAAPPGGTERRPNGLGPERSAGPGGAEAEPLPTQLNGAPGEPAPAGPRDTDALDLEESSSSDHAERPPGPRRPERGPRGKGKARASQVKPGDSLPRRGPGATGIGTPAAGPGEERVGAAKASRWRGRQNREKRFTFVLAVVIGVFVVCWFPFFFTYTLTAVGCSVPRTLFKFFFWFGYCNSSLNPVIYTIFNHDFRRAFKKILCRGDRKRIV
Description: Adrenergic alpha2A radioligand binding ([3H]MK-912). Conditions: compound at 1 μM; read-out: Adrenergic (1 μM) α2A, percent inhibition of specific binding. In a few lines:
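Membranes of Sf9 cells expressing human recombinant α2A receptor were incubated with compound and 1 nM [3H]MK-912 for 60 min at 25 °C in 50 mM Tris-HCl pH 7.4, 12.5 mM MgCl2, 2 mM EDTA. Nonspecific binding: 10 μM WB-4101.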

The target in assay [2] is T2, human recombinant dopamine D2L receptor (Homo sapiens, UniProt P14416).
T2 construct: expressed in transfected cells; host or cells: CHO cells
The assay is described as follows: Dopamine D2L radioligand binding ([3H]Spiperone). Conditions: compound at 1 μM; read-out: Dopamine (1 μM) D2L, percent inhibition of specific binding. In a few lines:
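Binding measured by filtration and counting, reported as % inhibition of specific [3H]spiperone binding (0.16 nM tracer; 10 μM haloperidol for nonspecific). Compounds tested at ≤1 μM in 1% DMSO for 120 min at 25° C against CHO-expressed human D2L in pH 7.4 Tris-HCl buffer.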

Assay [3] has as its target T3, human recombinant serotonin (5-Hydroxytryptamine) 5-HT2A receptor (Homo sapiens, UniProt P28223).
T3 construct: expressed in transfected cells; host or cells: CHO-K1 cells
The assay is described as follows: Serotonin 5-HT2A radioligand binding ([3H]Ketanserin). Conditions: compound at 1 μM; read-out: Serotonin (1 μM) 5-HT2A, percent inhibition of specific binding. Put shortly: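 Percent inhibition of specific [3H]ketanserin (0.5 nM) binding, filtration read-out, with compounds at ≤1 μM (1% DMSO vehicle). Receptor source: recombinant human 5-HT2A in CHO-K1 cells, 50 mM Tris-HCl pH 7.4, 60 min, 25 °C; 1 μM mianserin gives nonspecific binding.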

The target in assay [4] is T4, human recombinant histamine H2 receptor (Homo sapiens, UniProt P25021).
T4 construct: expressed in transfected cells; host or cells: CHO-K1 cells
The assay is described as follows: Histamine H2 radioligand binding ([125I]Aminopotentidine). Conditions: compound at 1 μM; read-out: Histamine Binding (1 μM) H2, percent inhibition of specific binding. Put shortly: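 Membranes from CHO-K1 cells expressing recombinant human H2 receptor, in 50 mM phosphate buffer pH 7.4, incubated with 0.1 nM [125I]aminopotentidine for 120 min at 25 °C; nonspecific binding defined with 3 μM tiotidine.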

T2 sequence (P14416 whole entry): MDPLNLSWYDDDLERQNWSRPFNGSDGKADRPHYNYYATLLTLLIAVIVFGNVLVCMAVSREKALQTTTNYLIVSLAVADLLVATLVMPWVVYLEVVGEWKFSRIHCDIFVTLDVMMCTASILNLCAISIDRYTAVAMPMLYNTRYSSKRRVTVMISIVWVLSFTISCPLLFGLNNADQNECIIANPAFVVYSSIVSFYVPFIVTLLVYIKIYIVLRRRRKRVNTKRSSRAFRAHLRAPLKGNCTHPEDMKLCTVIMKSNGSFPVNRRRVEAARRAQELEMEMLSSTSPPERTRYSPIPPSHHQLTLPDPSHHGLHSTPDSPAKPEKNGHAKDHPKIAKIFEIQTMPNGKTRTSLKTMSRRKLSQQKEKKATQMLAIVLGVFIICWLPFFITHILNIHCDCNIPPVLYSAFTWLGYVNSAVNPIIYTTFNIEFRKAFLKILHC
T4 sequence (P25021 whole entry): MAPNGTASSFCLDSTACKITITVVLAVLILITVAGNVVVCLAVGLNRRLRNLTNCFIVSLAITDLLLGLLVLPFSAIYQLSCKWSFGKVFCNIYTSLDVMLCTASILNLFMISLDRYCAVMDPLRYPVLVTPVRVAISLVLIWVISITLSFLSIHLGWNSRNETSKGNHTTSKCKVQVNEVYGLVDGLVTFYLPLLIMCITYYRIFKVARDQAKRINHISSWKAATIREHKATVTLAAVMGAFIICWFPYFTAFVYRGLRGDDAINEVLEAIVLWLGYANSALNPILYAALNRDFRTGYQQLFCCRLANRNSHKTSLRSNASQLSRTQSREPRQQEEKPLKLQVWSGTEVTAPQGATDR
T3 sequence (P28223 whole entry): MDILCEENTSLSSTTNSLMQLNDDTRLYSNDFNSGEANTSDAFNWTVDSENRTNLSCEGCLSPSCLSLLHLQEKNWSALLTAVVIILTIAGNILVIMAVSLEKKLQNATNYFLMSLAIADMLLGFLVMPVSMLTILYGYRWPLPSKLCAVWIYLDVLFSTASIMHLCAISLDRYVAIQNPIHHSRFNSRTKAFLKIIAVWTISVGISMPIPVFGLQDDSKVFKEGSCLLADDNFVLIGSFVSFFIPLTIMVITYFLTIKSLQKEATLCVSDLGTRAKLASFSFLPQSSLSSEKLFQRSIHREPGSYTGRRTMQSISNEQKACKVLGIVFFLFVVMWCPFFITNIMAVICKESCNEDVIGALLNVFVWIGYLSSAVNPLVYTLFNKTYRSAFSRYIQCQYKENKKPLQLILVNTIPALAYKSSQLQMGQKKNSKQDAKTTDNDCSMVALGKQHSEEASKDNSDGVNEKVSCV

`CN1CCc2c(n(CC(O)c3ccccc3)c3ccc(Cl)cc23)CC1` (centres unmarked) [Compound No. 24, 2-(9-chloro-2,3,4,5-tetrahydro-3-methylazepino[4,5-b]indol-6(1H)-yl)-1-phenylethanol]: the inhibition at 1 µM in assay [1] amounted to 100%; in assay [2] it was 41%; in assay [3], 98%; in assay [4], 58%.

As for `COc1ccc(C(O)Cn2c3c(c4cc(C)ccc42)CCN(C)CC3)cc1` (centres unmarked) [Compound No. 48, 2-(2,3,4,5-tetrahydro-3,9-dimethylazepino[4,5-b]indol-6(1H)-yl)-1-(4-methoxyphenyl) ethanol], the inhibition at 1 µM was 98% in assay [1], 31% in assay [2], 97% in assay [3] and 56% in assay [4].

On to `CN1CCc2c(n(CC(=O)Nc3ccccc3)c3ccc(Cl)cc23)CC1` [Compound No. 73, 2-(9-chloro-2,3,4,5-tetrahydro-3-methylazepino[4,5-b]indol-6(1H)-yl)-N-phenylacetamide], for which the inhibition at 1 µM is 28% in assay [1], -14% in assay [2], 18% in assay [3] and -5% in assay [4].

As to `Cc1ccc2c(c1)c1c(n2CCc2ccc(C(F)(F)F)nc2)CCN(C)CC1` [Compound No. 20, 6-(2-(6-(trifluoromethyl)pyridin-3-yl)ethyl)-1,2,3,4,5,6-hexahydro-3,9-dimethylazepino[4,5-b]indole], the inhibition at 1 µM in assay [1] came to 68%; in assay [2], 13%; in assay [3], 95%; in assay [4], 37%.

`Cc1ccc(C(O)Cn2c3c(c4cc(Cl)ccc42)CCN(C)CC3)cn1` (centres unmarked) [Compound No. 7, 2-(9-chloro-2,3,4,5-tetrahydro-3-methylazepino[4,5-b]indol-6(1H)-yl)-1-(6-methylpyridin-3-yl)ethanol]: the inhibition at 1 µM in assay [1] is 84%; in assay [2] it was 15%; in assay [3] it was 80%; in assay [4], 52%.

In the case of `CN1CCc2c(n(CC(O)c3cccnc3)c3ccc(Cl)cc23)CC1` (centres unmarked) [Compound No. 18, 2-(9-chloro-2,3,4,5-tetrahydro-3-methylazepino[4,5-b]indol-6(1H)-yl)-1-(pyridin-3-yl)ethanol], the inhibition at 1 µM in assay [1] came to 92%; in assay [2], 3%; in assay [3], 88%; in assay [4], 51%.

Regarding `C/C(=C\n1c2c(c3cc(C)ccc31)CCN(C)CC2)c1ccc(F)cc1` [Compound No. 34, 6-((E)-2-(4-fluorophenyl)prop-1-enyl)-1,2,3,4,5,6-hexahydro-3,9-dimethylazepino[4,5-b]indole], the inhibition at 1 µM in assay [1] turned out to be 94%; in assay [2], 90%; in assay [3] it was 98%; in assay [4], 103%.

In the case of `COc1ccc(C(O)Cn2c3c(c4cc(Cl)ccc42)CCN(C)CC3)cc1F` (centres unmarked) [Compound No. 67, 2-(9-chloro-2,3,4,5-tetrahydro-3-methylazepino[4,5-b]indol-6(1H)-yl)-1-(3-fluoro-4-methoxyphenyl) ethanol], the inhibition at 1 µM is 102% in assay [1], 50% in assay [2], 100% in assay [3] and 72% in assay [4].

As for `Cc1ccc2c(c1)c1c(n2CC(=O)NC(C)C)CCN(C)CC1` [Compound No. 54, 2-(2,3,4,5-tetrahydro-3,9-dimethylazepino[4,5-b]indol-6(1H)-yl)-N-isopropylacetamide], the inhibition at 1 µM in assay [1] was 5%; in assay [2], 6%; in assay [3], 1%; in assay [4], -3%.

Consider `CN1CCc2c(n(/C=C/c3ccc(F)c(F)c3)c3ccc(Cl)cc23)CC1` [Compound No. 236, (E)-9-chloro-6-(3,4-difluorostyryl)-3-methyl-1,2,3,4,5,6-hexahydroazepino[4,5-b]indole], for which the inhibition at 1 µM amounted to 89% in assay [1], 34% in assay [2], 101% in assay [3] and 97% in assay [4].

Regarding `CN1CCc2c(n(CC(O)c3ccc(F)c(F)c3)c3ccc(Cl)cc23)CC1` (centres unmarked) [Compound No. 58, 2-(9-chloro-2,3,4,5-tetrahydro-3-methylazepino[4,5-b]indol-6(1H)-yl)-1-(3,4-difluorophenyl)ethanol], the inhibition at 1 µM in assay [1] amounted to 95%; in assay [2], 47%; in assay [3], 100%; in assay [4], 91%.

On to `Cc1ccc2c(c1)c1c(n2C(=O)Cc2ccc(F)cc2)CCN(C)CC1` [Compound No. 285, 1-(3,9-dimethyl-2,3,4,5-tetrahydroazepino[4,5-b]indol-6(1H)-yl)-2-(4-fluorophenyl) ethanone], for which the inhibition at 1 µM in assay [1] came to 91%; in assay [2] it was 21%; in assay [3], 100%; in assay [4] it was 74%.

For `Cc1ccc(C(O)Cn2c3c(c4cc(C)ccc42)CCN(C)CC3)cc1` (centres unmarked) [Compound No. 27, 2-(2,3,4,5-tetrahydro-3,9-dimethylazepino[4,5-b]indol-6(1H)-yl)-1-p-tolylethanol], the inhibition at 1 µM is 98% in assay [1], 58% in assay [2], 99% in assay [3] and 78% in assay [4].

Take `Cc1ccc2c(c1)c1c(n2CC(O)c2cccnc2)CCN(C)CC1` (centres unmarked) [Compound No. 19, 2-(2,3,4,5-tetrahydro-3,9-dimethylazepino[4,5-b]indol-6(1H)-yl)-1-(pyridin-3-yl)ethanol]: the inhibition at 1 µM in assay [1] amounted to 69%; in assay [2], 12%; in assay [3], 80%; in assay [4], 42%.

Take `Cc1ccc2c(c1)c1c(n2CC(C)(O)c2ccc(Cl)cc2)CCN(C)CC1` (centres unmarked) [Compound No. 15, 2-(4-chlorophenyl)-1-(2,3,4,5-tetrahydro-3,9-dimethylazepino[4,5-b]indol-6(1H)-yl)propan-2-ol]: the inhibition at 1 µM in assay [1] is 93%; in assay [2], 45%; in assay [3], 101%; in assay [4], 92%.

In the case of `Cc1ccc2c(c1)c1c(n2/C=C/c2ccc(Cl)cc2)CCN(C)CC1` [Compound No. 235, (E)-6-(4-chlorostyryl)-3,9-dimethyl-1,2,3,4,5,6-hexahydroazepino[4,5-b]indole], the inhibition at 1 µM turned out to be 95% in assay [1], 42% in assay [2], 102% in assay [3] and 94% in assay [4].

Regarding `Cc1ccc2c(c1)c1c(n2CCc2ccccc2Cl)CCN(C)CC1` [Compound No. 69, 6-(2-chlorophenethyl)-1,2,3,4,5,6-hexahydro-3,9-dimethylazepino[4,5-b]indole], the inhibition at 1 µM was 8% in assay [1], -2% in assay [2], 52% in assay [3] and -9% in assay [4].

On to `Cc1ccc2c(c1)c1c(n2CCc2ccccn2)CCN(C)CC1` [Compound No. 9, 1,2,3,4,5,6-hexahydro-3,9-dimethyl-6-(2-(pyridin-2-yl)ethyl)azepino[4,5-b]indole], for which the inhibition at 1 µM stood at 88% in assay [1], 20% in assay [2], 96% in assay [3] and 44% in assay [4].

For the compound `Cc1ccc(C(O)Cn2c3c(c4cc(Cl)ccc42)CCN(C)CC3)cc1` (centres unmarked) [Compound No. 26, 2-(9-chloro-2,3,4,5-tetrahydro-3-methylazepino[4,5-b]indol-6(1H)-yl)-1-p-tolylethanol], the inhibition at 1 µM in assay [1] worked out at 99%; in assay [2] it was 65%; in assay [3], 100%; in assay [4] it was 84%.

For the compound `CN1CCc2c(n(CC(C)(O)c3ccc(F)cc3)c3ccc(Cl)cc23)CC1` (centres unmarked) [Compound No. 13, 1-(9-chloro-2,3,4,5-tetrahydro-3-methylazepino[4,5-b]indol-6(1H)-yl)-2-(4-fluorophenyl)propan-2-ol], the inhibition at 1 µM is 94% in assay [1], 38% in assay [2], 97% in assay [3] and 92% in assay [4].
